Several values for one entry are separate records, joined by “and”; a condition that tells them apart may be missing. Equal entries are not always repeated. Where two headings read alike, the source gives them in different places.
Columns and labels:
[1] = system: CYP2D6; conditions: rat liver microsomes; cited from earlier work
[2] = system: CYP3A4; conditions: rat liver microsomes; cited from earlier work
[3] = in vivo; conditions: for AUC(0-inf) / Tmax / AUC(0-t) / CL/F / Cmax / k el / MRT: male, Sprague-Dawley, po, 5 mg/kg; for AUC(0-inf): AUC(0-∞) of MEM; for AUC(0-inf) / Tmax / AUC(0-t) / CL/F / Cmax / k el / MRT / Ka of MEM / T1/2a of MEM / T1/2d of MEM / Vd of MEM: n = 8, mean ± SD; for Tmax: Tmax of MEM; for AUC(0-t): AUC(0-t) of MEM; for CL/F: CL/F of MEM; for Cmax: Cmax of MEM; for k el: Ke of MEM; for MRT: MRT of MEM
Protocol: The analytes were separated on an ACQUITY UPLC BEH C18 column (2.1 mm × 50 mm, 1.7 μm, Waters, Milford, USA). […] The flow rate was 0.3 mL/min. The column and sample-tray temperature were kept at 40 °C and 4 °C, respectively. The injection volume was 5.0 μL using a partial loop with needle over fill mode.
The compound dependent parameters used for analysis were summarized in Supplementary materials Table S1.
A rapid and convenient precipitation method was used to prepare the plasma samples. A 100 μL aliquot of plasma sample was spiked with 100 μL of IS solution and 300 μL of methanol in a 1.5 mL centrifuge tube; subsequently, the mixtures were vortex-mixed for 30.0 s and then centrifuged at 1.5 × 10^4× g for 10 min at 4 °C. A 100 μL aliquot of supernatant was combined with 25.0 μL of 0.1% formic acid water in a clean centrifuge tube and then vortex-mixed for 30 s. A 5.0 μL aliquot of mixture was injected into the UPLC-MS/MS system for analysis.
Fifty-six pathogen-free male adult rats were randomly divided into seven groups with eight rats in each group for pharmacokinetic study. […] One group was intragastrically administered with MEM hydrochloride 5.0 mg/kg dissolved in ultrapure water, namely, MEM group. […] The blood samples were immediately centrifuged at 4.0 × 10^3× g at […] for 10 min, and 100 μL of the supernatant plasma was transferred into another new 1.5 mL centrifuge tube and stored at −20 °C until UPLC-MS/MS analysis.
All standard curves and quantitative data were processed by Agilent Mass Hunter Quantitative Analysis Workstation Software. […] All the pharmacokinetic parameters were processed using the non-compartmental pharmacokinetics data analysis software program PK solutions 2.0^TM (Summit Research Services, USA). […] The AUC(0-t) was obtained by the linear/logarithmic trapezoidal rule, and the area under the plasma concentration versus time curve from zero to infinity (AUC(0-∞)) was calculated by means of the trapezoidal rule with extrapolation to infinity with a terminal elimination rate constant. The Pearson correlation coefficient analysis was processed by IBM SPSS Statistics Version 21. A statistical analysis was performed using analysis of variance with α = 0.05 as the minimal level of significance.

[4] = rats, cited from earlier work
[5] = system: CYP1A2; conditions: rat liver microsomes; cited from earlier work
[6] = rat, plasma, rat plasma, oral MEM 5.0 mg/kg + HAR 20.0 mg/kg (HAR-L + MEM)
[7] = rat, plasma, rat plasma, oral MEM 5.0 mg/kg + HAR 40.0 mg/kg (HAR-M + MEM)
[8] = rat, plasma, rat plasma, oral MEM 5.0 mg/kg + HAR 80.0 mg/kg (HAR-H + MEM)
[9] = rat, plasma, rat plasma, oral MEM 5.0 mg/kg alone (MEM group)
[10] = rat plasma, oral MEM 5.0 mg/kg + HAR 20.0 mg/kg (HAR-L + MEM)
[11] = rat plasma, oral MEM 5.0 mg/kg + HAR 40.0 mg/kg (HAR-M + MEM)
[12] = rat plasma, oral MEM 5.0 mg/kg + HAR 80.0 mg/kg (HAR-H + MEM)
[13] = rat plasma, oral MEM 5.0 mg/kg alone (MEM group)

**Q.** For `CC12CC3CC(C)(C1)CC(N)(C3)C2` [MEM, 1-amino-3,5-dimethyladamantane, reference compound], which “inhibition of CYP2D6” value [1] is on record?
**A.** Its value is “strong inhibitor”.

**Q.** And the “inhibition of CYP3A4” value [2]?
**A.** Its value is “weak inhibitor”.

**Q.** What about the AUC(0-inf) ([3]; rat, in vivo, rat plasma, oral MEM 5.0 mg/kg + HAR 80.0 mg/kg (HAR-H + MEM)) of the same molecule?
**A.** The AUC(0-inf) was 781 ± 285 ng·h/mL.

**Q.** What about the Tmax ([3]; rat, in vivo, rat plasma, oral MEM 5.0 mg/kg + HAR 20.0 mg/kg (HAR-L + MEM)) of the same molecule?
**A.** Its Tmax is 3.13 ± 2.23 h.

**Q.** What about the AUC(0-t) [3, 6] of the same molecule?
**A.** The AUC(0-t) was 392 ± 55.2 ng·h/mL.

**Q.** What about the AUC(0-t) [3, 7] of the same molecule?
**A.** The AUC(0-t) was 472 ± 105 ng·h/mL.

**Q.** And the AUC(0-t) [3, 8]?
**A.** Its AUC(0-t) is 603 ± 149 ng·h/mL.

**Q.** And the AUC(0-t) [3, 9]?
**A.** Its AUC(0-t) is 349 ± 46.2 ng·h/mL.

**Q.** What about the AUC(0-inf) [3, 6] of the same molecule?
**A.** The AUC(0-inf) was 477 ± 75.1 ng·h/mL.

**Q.** And the AUC(0-inf) [3, 7]?
**A.** Its AUC(0-inf) is 547 ± 142 ng·h/mL.

**Q.** And the AUC(0-inf) [3, 9]?
**A.** Its AUC(0-inf) is 367 ± 4.87 ng·h/mL.

**Q.** What about the CL/F [3, 6] of the same molecule?
**A.** The CL/F was 178 mL/min/kg.

**Q.** And the CL/F [3, 7]?
**A.** Its CL/F is 162 mL/min/kg.

**Q.** What about the CL/F [3, 8] of the same molecule?
**A.** Its CL/F is 118 mL/min/kg.

**Q.** What about the CL/F [3, 9] of the same molecule?
**A.** Its CL/F is 230 mL/min/kg.

**Q.** What about the Cmax [3, 6] of the same molecule?
**A.** The Cmax was 50.5 ± 7.59 ng/mL.

**Q.** And the Cmax [3, 7]?
**A.** Its Cmax is 74.9 ± 15 ng/mL.

**Q.** What about the Cmax [3, 8] of the same molecule?
**A.** The Cmax was 74.3 ± 26.6 ng/mL.

**Q.** What about the Cmax [3, 9] of the same molecule?
**A.** The Cmax was 84.8 ± 25.8 ng/mL.

**Q.** What about the k el [3, 6] of the same molecule?
**A.** The k el was 5.31e-05 s⁻¹.

**Q.** And the k el [3, 7]?
**A.** Its k el is 5.97e-05 s⁻¹.

**Q.** What about the k el [3, 8] of the same molecule?
**A.** The k el was 5.64e-05 s⁻¹.

**Q.** What about the k el [3, 9] of the same molecule?
**A.** Its k el is 7.25e-05 s⁻¹.

**Q.** And the MRT [3, 6]?
**A.** Its MRT is 7.45 ± 1.51 h.

**Q.** And the MRT [3, 7]?
**A.** Its MRT is 6.25 ± 1.25 h.

**Q.** What about the MRT [3, 8] of the same molecule?
**A.** Its MRT is 8.5 ± 3.74 h.

**Q.** What about the MRT [3, 9] of the same molecule?
**A.** The MRT was 4.04 ± 0.808 h.

**Q.** And the Tmax [3, 7]?
**A.** The Tmax was 1.56 ± 1.11 h.

**Q.** And the Tmax [3, 8]?
**A.** The Tmax was 4 ± 1.85 h.

**Q.** And the Tmax [3, 9]?
**A.** Its Tmax is 1.31 ± 0.579 h.

**Q.** And the “Ka of MEM” value [3, 10]?
**A.** Its value is 0.595 ± 0.315 h⁻¹.

**Q.** What about the “T1/2a of MEM” value [3, 10] of the same molecule?
**A.** Its value is 1.37 ± 0.468 h.

**Q.** And the “T1/2d of MEM” value [3, 10]?
**A.** Its value is 2.42 ± 1.06 h.

**Q.** And the “Vd of MEM” value [3, 10]?
**A.** The value was 60.1 ± 19.3 L/kg.

**Q.** And the “Ka of MEM” value [3, 11]?
**A.** Its value is 1.08 ± 1.05 h⁻¹.

**Q.** What about the “T1/2a of MEM” value [3, 11] of the same molecule?
**A.** Its value is 0.945 ± 0.398 h.

**Q.** What about the “T1/2d of MEM” value [3, 11] of the same molecule?
**A.** Its value is 1.67 ± 0.560 h.

**Q.** What about the “Vd of MEM” value [3, 11] of the same molecule?
**A.** Its value is 48.4 ± 16.4 L/kg.

**Q.** What about the “Ka of MEM” value [3, 12] of the same molecule?
**A.** Its value is 0.481 ± 0.203 h⁻¹.

**Q.** What about the “T1/2a of MEM” value [3, 12] of the same molecule?
**A.** The value was 1.61 ± 0.459 ^bb h.

**Q.** What about the “T1/2d of MEM” value [3, 12] of the same molecule?
**A.** Its value is 1.61 ± 0.529 h.

**Q.** What about the “Vd of MEM” value [3, 12] of the same molecule?
**A.** The value was 38.3 ± 13.1 L/kg.

**Q.** And the “MEM in plasma within 24.0 h after co-administrations” value ([3]; rat plasma, oral MEM 5.0 mg/kg + HAR 20.0, 40.0 or 80.0 mg/kg)?
**A.** Its value is “a small amount of MEM could still be detected”.

**Q.** And the “MEM in plasma after 24 h of administration” value [3, 13]?
**A.** Its value is “no MEM was detected”.

**Q.** And the “Ka of MEM” value [3, 13]?
**A.** Its value is 1.73 ± 0.848 h⁻¹.

**Q.** And the “T1/2a of MEM” value [3, 13]?
**A.** Its value is 0.482 ± 0.202 h.

**Q.** What about the “T1/2d of MEM” value [3, 13] of the same molecule?
**A.** The value was 3.08 ± 2.37 h.

**Q.** And the “Vd of MEM” value [3, 13]?
**A.** Its value is 53.8 ± 10.6 L/kg.

**Q.** What about the “T1/2e of MEM” value ([3]; rat, in vivo) of the same molecule?
**A.** Its value is 2.69 ± 0.306 h and 3.96 ± 1.44 h and 3.62 ± 1.42 h and 4.27 ± 3.03 h.

**Q.** What about the “T1/2e of MEM” value ([4]; administered orally with 1.22 mg eq./mL MEM) of the same molecule?
**A.** The value was 2.23 h.

**Q.** And the “T1/2e of MEM” value ([4]; administered orally with 2.00 mg eq./mL MEM)?
**A.** The value was 3.92 h.

**Q.** What about the “inhibition of CYP1A2” value [5] of the same molecule?
**A.** The value was “weak inhibitor”.

Source: publication PMC6479946 (Molecules, 2019)
